The results in this text go back to article PMC5628579, “Potent mechanism-based sirtuin-2-selective inhibition by an in situ-generated occupant of the substrate-binding site, “selectivity pocket” and NAD^+-binding site” (Chemical Science, 2017).

Test [1] addresses T1, SIRT2 (Homo sapiens, UniProt Q8IXJ6).
T1 sequence (Q8IXJ6 1-389): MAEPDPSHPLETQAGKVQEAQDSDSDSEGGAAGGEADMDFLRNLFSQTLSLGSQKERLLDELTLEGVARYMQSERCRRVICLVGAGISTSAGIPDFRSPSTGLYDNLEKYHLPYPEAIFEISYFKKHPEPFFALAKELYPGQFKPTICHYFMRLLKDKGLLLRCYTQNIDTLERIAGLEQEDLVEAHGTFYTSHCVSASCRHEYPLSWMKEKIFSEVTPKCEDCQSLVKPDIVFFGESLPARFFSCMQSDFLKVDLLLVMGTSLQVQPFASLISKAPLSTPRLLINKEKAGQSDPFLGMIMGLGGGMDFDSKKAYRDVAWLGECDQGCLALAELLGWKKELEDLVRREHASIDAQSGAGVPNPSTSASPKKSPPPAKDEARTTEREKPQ
Put plainly: Fluor de Lys SIRT2 assay.

Test [2] relates to acetylated α-tubulin (SIRT2 substrate). Put plainly: Western blot of acetylated α-tubulin in MDA-MB-231 cells. The test is classed as cell-based, human. Conditions: 20 μM, 6 h. As to the method:
MCF-7 and MDA-MB-231 cells were plated in 96-well plates (initial density: 1 × 10^3 cells per well) and incubated at 37 °C. After 24 h, test compound solutions (50 μL/well) of varying concentrations in medium (DMEM and Leibovitz's L-15 for MCF-7 and MDA-MB-231 cells respectively) for were added to the cells at 37 °C under 5% CO2 in air and left to react for 72 h. Thereafter, the mixtures were treated with 10 μL of AlamarBlue® (AbD Serotec, #BUF012A), incubation was continued at 37 °C for 3 h. The fluorescence in each well was measured with an ARVOTM X3 microplate reader (λex = 540 nm; λem = 590 nm). With the obtained fluorescence readings, it was possible to calculate the percentage of cell growth.
MDA-MB-231 cells (5 × 10^5 cells/2 mL/dish) were treated for 6 h with the test compounds at the indicated concentrations in the cell culture medium, before the cells were collected and extracted with SDS buffer. The protein concentrations of the lysates were determined using a BCA protein assay.
Equivalent amounts of protein from each lysate were resolved in 5–20% SDS-polyacrylamide gels and transferred onto PVDF membranes. […]
For the differentiation study, the medium was changed to DMEM supplemented with 2% FBS. After incubation with or without 36 for 72 h, the cell morphology was examined using a microscope (Olympus CKX41) and further analyzed with the Photomeasure software (Kenis Ltd.). […]
On the technique in general: A western blot detects proteins with antibodies after separation by electrophoresis.

The test system of the next test is neuro-2a (N2a) cells. Put plainly: Neurite outgrowth assay. Conditions: 72 h, vehicle 14.22 ± 2.9%. The format is cell-based, mouse.
For test [3], the target named is T1, SIRT2. Put plainly: SIRT2 substrate competition analysis and time-dependent inhibition. Set-up: purchased Biomol / Enzo Life Sciences (Fluor de Lys kit AK-556) BML SE-251-0500. The test is classed as biochemical. As to the method: added to the blank wells). […] Thereafter, […]
which three independent curves were generated. […]
added to the blank wells).
The results were plotted using GraFit 7.0.3.
SIRT2 substrate competition analysis for 36
The assay follows in general the same procedure reported for the SIRT2 assay (vide supra), except for the following changes: reaction time = 45 min; [NAD+] = 2 mM; [substrate] = 50, 80, 150, or […]
Mass spectrometric detection of the ADP-ribose conjugate
Reactions were conducted for 5 min at 37 °C in 5 μL containing 1.9 μM SIRT2 (SignalChem), 500 μM NAD+ or 6-AE-NAD+ (BIOLOG Life Science Institute), and 1 mM 36, as well as 40 mM sodium phosphate buffer (pH = 7.0), containing 240 mM NaCl, 120 mM imidazole, 0.08 mM PMSF, 0.2 mM DTT, 20% glycerol, and 2% DMSO. Controls were measured in the absence of compounds or the enzyme. The reaction mixtures were diluted with 5 μL of water and purified using ZipTip-μC18 (Millipore). The fraction eluted with 2 μL of 50% acetonitrile containing α-cyano-4-hydroxycinnamic acid at a concentration of 5 mg/mL was directly subjected to MALDI-TOF MS analysis. MALDI-TOF mass spectra were acquired on an AB SCIEX TOF/TOF™ 5800 (AB SCIEX) in reflectron […]

Usually IC50 stands for the concentration at which inhibition is half-maximal. A word on the inhibition: it is the percentage by which the read-out fell short of the control. In turn, `C[C@H](NC(=O)[C@H](CCCCNC(=S)CNC(=O)c1ccccc1Nc1cccc(OCCc2ccccc2)c1)NC(=O)OCc1ccccc1)C(N)=O` [Compound 36] returned an IC50 on SIRT2 [1] of 55 ± 3.5 nM. Further, on SIRT2 [1] (read-out: % inhibition at 1 μM SIRT2), the inhibition at 1 µM worked out at 100 ± 3.4%. For the same compound, on SIRT2 [1] (selectivity ratio), the “SIRT1 [IC50]/SIRT2 [IC50]” value is given as 28.4. Besides, at SIRT2 [1] (selectivity ratio), the “SIRT3 [IC50]/SIRT2 [IC50]” value stood at 172.5. In addition, in test [2], the “acetylated α-tubulin level (western blot)” value was “induced the accumulation of acetylated α-tubulin”. The “percentage of differentiated cells” value in the test with neuro-2a (N2a) cells (0.5 μM) is listed as 23.09 ± 3.21%; in the test on neuro-2a (N2a) cells (1 μM) it was 25.73 ± 1.3%. For the same compound, the “mode of SIRT2 inhibition (substrate competition analysis)” value on SIRT2 [3] (Lineweaver–Burk plot, NAD+ saturation) is on record as “competitive inhibition with the acetylated lysine substrate”. Also, the “time dependence of SIRT2 inhibitory effect” value at SIRT2 [3] (incubation 0–120 min with SIRT2, acetylated substrate, NAD+) was “time-dependent”.
